Measured values published in PubChem BioAssay AID330 (DTP/NCI, 2004).
Several values for one entry are separate records, joined by “and”; a condition that tells them apart may be missing. Identical values can stand only once. Inconclusive results and toxic doses are left out. How the source made its calls: active means survival T/C of 150% or more; inactive means T/C below 125% in these data.

Tested on: P388 leukemia ip, CD2F1 mice, survival T/C
Test: NCI In Vivo Anticancer Drug Screen. Data for tumor model P388 Leukemia (intraperitoneal) in CD2F1 (CDF1) mice
Conditions: endpoint: median survival time, higher = longer survival
Procedure, shortened: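 Mice carrying the transplanted tumor received test compound or vehicle. Survival was recorded in each group, and the value is the treated-group measurement divided by that of the vehicle-treated control group.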

[1] = dose: 100.0 mg/kg/injection, schedule: Q01DX009 (ip), vehicle: saline
[2] = dose: 400.0 mg/kg/injection, schedule: Q01DX009 (ip), vehicle: saline
[3] = dose: 50.0 mg/kg/injection, schedule: Q01DX005 (ip), vehicle: Klucel (hydroxypropylcellulose) (HPC)
[4] = dose: 100.0 mg/kg/injection, schedule: Q01DX005 (ip), vehicle: Klucel (hydroxypropylcellulose) (HPC)
[5] = dose: 200.0 mg/kg/injection, schedule: Q01DX005 (ip), vehicle: Klucel (hydroxypropylcellulose) (HPC)
[6] = dose: 100.0 mg/kg/injection, schedule: Q04DX002 (ip), vehicle: saline with Tween-80
[7] = dose: 200.0 mg/kg/injection, schedule: Q04DX002 (ip), vehicle: saline with Tween-80
[8] = dose: 400.0 mg/kg/injection, schedule: Q04DX002 (ip), vehicle: saline with Tween-80
[9] = dose: 25.0 mg/kg/injection, schedule: Q01DX005 (ip), vehicle: Klucel (hydroxypropylcellulose) (HPC)
[10] = dose: 60.0 mg/kg/injection, schedule: Q01DX005 (ip), vehicle: saline with Tween-80
[11] = dose: 120.0 mg/kg/injection, schedule: Q01DX005 (ip), vehicle: saline with Tween-80
[12] = dose: 240.0 mg/kg/injection, schedule: Q01DX005 (ip), vehicle: saline with Tween-80
[13] = dose: 100.0 mg/kg/injection, schedule: Q04DX003 (ip), vehicle: Klucel (hydroxypropylcellulose) (HPC)
[14] = dose: 50.0 mg/kg/injection, schedule: Q01DX005 (ip), vehicle: saline with Tween-80
[15] = dose: 100.0 mg/kg/injection, schedule: Q01DX005 (ip), vehicle: saline with Tween-80
[16] = dose: 60.0 mg/kg/injection, schedule: Q01DX005 (ip), vehicle: Klucel (hydroxypropylcellulose) (HPC)
[17] = dose: 120.0 mg/kg/injection, schedule: Q01DX005 (ip), vehicle: Klucel (hydroxypropylcellulose) (HPC)
[18] = dose: 240.0 mg/kg/injection, schedule: Q01DX005 (ip), vehicle: Klucel (hydroxypropylcellulose) (HPC)

Measured: T/C

O=C(Nc1ccc(S(=O)(=O)O)cc1)c1ccc([N+](=O)[O-])cc1
inactive: [1] 100 % of control | [2] 109 % of control

COC(=O)C(CSSCC(C(=O)NC(Cc1ccccc1)C(=O)NCC(=O)OC(C)(C)C)N1C(=O)CCC1=O)NC(=O)OCc1ccccc1 (configuration not stated)
inactive: [3] 103 % of control | [4] 93 % of control | [5] 96 % of control

COc1ccc(N=C(C2=C(O)c3ccccc3C2=O)c2ccccc2)cc1
inactive: [6] 101 % of control | [7] 101 % of control | [8] 97 % of control

CC1CCCC2=C1C(O)c1cccc(N)c1C2O (configuration not stated)
inactive: [3] 102 % of control | [4] 96 % of control | [5] 88 % of control

CCCCN(CCCC)c1ccc(C(=N)c2ccc(N(CCCC)CCCC)cc2)cc1
inactive: dose: 6.25 mg/kg/injection, schedule: Q01DX005 (ip), vehicle: Klucel (hydroxypropylcellulose) (HPC) 108 % of control | dose: 12.5 mg/kg/injection, schedule: Q01DX005 (ip), vehicle: Klucel (hydroxypropylcellulose) (HPC) 108 % of control | [9] 117 % of control

COc1ccc(C2C(C#N)C(=O)N3C(=O)C(NC(C)=O)=C(O)C23)cc1 (configuration not stated)
inactive: dose: 100.0 mg/kg/injection, schedule: Q01DX001 (ip), vehicle: saline 94 % of control | dose: 200.0 mg/kg/injection, schedule: Q01DX001 (ip), vehicle: saline 95 % of control | dose: 400.0 mg/kg/injection, schedule: Q01DX001 (ip), vehicle: saline 97 % of control

CS(=O)(=O)OCC(O)C(O)CI (configuration not stated)
inactive: dose: 25.0 mg/kg/injection, schedule: Q01DX005 (ip), vehicle: saline 109 % of control | dose: 50.0 mg/kg/injection, schedule: Q01DX005 (ip), vehicle: saline 104 % of control | dose: 100.0 mg/kg/injection, schedule: Q01DX005 (ip), vehicle: saline 111 % of control

CC(C)(Br)C(=O)/C=C/c1ccc(Cl)c(Cl)c1
inactive: [10] 111 % of control | [11] 118 % of control | [12] 108 % of control

Cn1c(=O)[nH]c2nnc(-c3ccccc3)nc2c1=O
inactive: dose: 50.0 mg/kg/injection, schedule: Q01DX009 (ip), vehicle: Klucel (hydroxypropylcellulose) (HPC) 107 % of control | dose: 100.0 mg/kg/injection, schedule: Q01DX009 (ip), vehicle: Klucel (hydroxypropylcellulose) (HPC) 106 % of control

O=S(=O)(c1cccc(C(F)(F)F)c1)N(CCCCN(S(=O)(=O)c1cccc(C(F)(F)F)c1)S(=O)(=O)c1cccc(C(F)(F)F)c1)S(=O)(=O)c1cccc(C(F)(F)F)c1
inactive: [10] 97 % of control | [11] 93 % of control | [12] 90 % of control

NC(=O)C1CCC(c2ccccc2)(c2ccccc2)C1=O (configuration not stated)
inactive: [6] 99 % of control | [7] 105 % of control | [8] 101 % of control

CC1=CC(=O)C=CC1=Nc1ccc(N(CCCl)CCCl)cc1
inactive: dose: 50.0 mg/kg/injection, schedule: Q04DX003 (ip), vehicle: Klucel (hydroxypropylcellulose) (HPC) 103 % of control | [13] 102 % of control

CC(=O)[O][Sn]([CH2]c1ccccc1)([CH2]c1ccccc1)[CH2]c1ccccc1
inactive: dose: 0.75 mg/kg/injection, schedule: Q01DX009 (ip), vehicle: saline 115 % of control | dose: 1.5 mg/kg/injection, schedule: Q01DX009 (ip), vehicle: saline 87 % of control | dose: 3.0 mg/kg/injection, schedule: Q01DX009 (ip), vehicle: saline 105 % of control | dose: 6.0 mg/kg/injection, schedule: Q01DX009 (ip), vehicle: saline 108 % of control

Cc1ccc(C2(c3ccc(C)cc3)CCCCCC2=O)cc1
inactive: [9] 87 % of control | [3] 90 % of control | [4] 97 % of control

O=S1(=O)C(CCCCC2=Cc3ccccc3S2(=O)=O)=Cc2ccccc21
inactive: [14] 94 % of control | [15] 100 % of control

Cn1c(=O)c2[nH]c(-n3ccc(=N)cc3)nc2n(C)c1=O
inactive: dose: 100.0 mg/kg/injection, schedule: Q04DX003 (ip), vehicle: saline 103 % of control | dose: 200.0 mg/kg/injection, schedule: Q04DX003 (ip), vehicle: saline 99 % of control | dose: 400.0 mg/kg/injection, schedule: Q04DX003 (ip), vehicle: saline 99 % of control

CN1C(=O)CCCCCCCCCCSc2ccccc21
inactive: [3] 93 % of control | [4] 97 % of control | [5] 88 % of control

CN1C(=O)N(C)[C@@H]2CC(=O)c3ccc(C(F)(F)F)cc3N2C1=O
inactive: [16] 101 % of control | [17] 107 % of control | [18] 103 % of control

CC1=C(C)C2(C)S(=O)Nc3ccccc3C12C (configuration not stated)
inactive: [16] 99 % of control | [17] 99 % of control | [18] 87 % of control

CN(C)c1ccnc2c1cnn2C1OC(CO)C(O)C1O (configuration not stated)
inactive: dose: 25.0 mg/kg/injection, schedule: Q01DX005 (ip), vehicle: saline with Tween-80 97 % of control | [14] 108 % of control | [15] 106 % of control

O=S1Nc2ccccc2[C@H]2[C@@H]1[C@H]1O[C@@H]2c2ccccc21 (some centres not stated)
inactive: [3] 112 % of control | [4] 105 % of control | [18] 101 % of control

CCCCCCCCCCCCCCCCSc1nc2ccc(N=Cc3ccccc3O)cc2s1
inactive: [13] 92 % of control | dose: 200.0 mg/kg/injection, schedule: Q04DX003 (ip), vehicle: Klucel (hydroxypropylcellulose) (HPC) 90 % of control | dose: 400.0 mg/kg/injection, schedule: Q04DX003 (ip), vehicle: Klucel (hydroxypropylcellulose) (HPC) 91 % of control

c1ccc2[nH]cnc2c1
inactive: dose: 20.0 mg/kg/injection, schedule: Q04DX003 (ip), vehicle: other 100 % of control | dose: 40.0 mg/kg/injection, schedule: Q04DX003 (ip), vehicle: other 99 % of control | dose: 40.0 mg/kg/injection, schedule: Q04DX003 (oral), vehicle: other 100 % of control | dose: 50.0 mg/kg/injection, schedule: Q01DX009 (ip), vehicle: suspension in saline 98 % of control | dose: 80.0 mg/kg/injection, schedule: Q04DX003 (ip), vehicle: other 95 % of control | dose: 100.0 mg/kg/injection, schedule: Q01DX009 (ip), vehicle: suspension in saline 90 % of control | dose: 100.0 mg/kg/injection, schedule: Q04DX003 (ip), vehicle: saline with Tween-80 100 % of control | dose: 160.0 mg/kg/injection, schedule: Q04DX003 (ip), vehicle: other 100 % of control | dose: 160.0 mg/kg/injection, schedule: Q04DX003 (oral), vehicle: other 104 % of control | dose: 200.0 mg/kg/injection, schedule: Q01DX009 (ip), vehicle: suspension in saline 106 % of control | dose: 200.0 mg/kg/injection, schedule: Q04DX003 (ip), vehicle: saline with Tween-80 100 % of control | dose: 320.0 mg/kg/injection, schedule: Q04DX003 (ip), vehicle: other 100 % of control | dose: 400.0 mg/kg/injection, schedule: Q04DX003 (ip), vehicle: saline with Tween-80 90 % of control

O=C(Oc1ccc[nH]c1=O)c1cc([N+](=O)[O-])cc([N+](=O)[O-])c1
inactive: dose: 12.5 mg/kg/injection, schedule: Q01DX009 (ip), vehicle: saline 99 % of control and 100 % of control | dose: 25.0 mg/kg/injection, schedule: Q01DX009 (ip), vehicle: saline 98 % of control and 107 % of control | dose: 50.0 mg/kg/injection, schedule: Q01DX009 (ip), vehicle: saline 99 % of control and 103 % of control | [1] 100 % of control | dose: 200.0 mg/kg/injection, schedule: Q01DX009 (ip), vehicle: saline 98 % of control and 101 % of control | [2] 100 % of control and 109 % of control

CCCCNC(=O)ON1C(=O)c2ccccc2C1=O
inactive: dose: 1.56 mg/kg/injection, schedule: Q01DX009 (ip), vehicle: saline with Tween-80 105 % of control | dose: 3.12 mg/kg/injection, schedule: Q01DX009 (ip), vehicle: saline with Tween-80 105 % of control | dose: 6.25 mg/kg/injection, schedule: Q01DX009 (ip), vehicle: saline with Tween-80 102 % of control and 117 % of control | dose: 12.5 mg/kg/injection, schedule: Q01DX009 (ip), vehicle: saline with Tween-80 110 % of control and 113 % of control | dose: 25.0 mg/kg/injection, schedule: Q01DX009 (ip), vehicle: saline with Tween-80 119 % of control
